Source: patent US11666600B2, “Methods for culturing and/or differentiating hematopoietic stem cells into progenitors and uses thereof” (HEMA-QUEBEC, priority 2015, dated 2023)
Several values for one entry are separate records, joined by “and”; a condition that tells them apart may be missing. Equal values may be shown once.

Assays:
[1] = tested on: CD34+ cells from human umbilical cord blood; test: Culture of cord blood CD34+ cells towards the megakaryocytic lineage (StemSpan ACF + BS1), flow cytometry; type: cell-based; details: for Percentage of cells bearing CD34+ / Percentage of cells bearing CD34+/CD41+ / Percentage of cells bearing CD34+/CD41− / Percentage of cells bearing CD41+ / Percentage of cells bearing CD41+/CD42+ / Percentage of cells bearing CD42+ / Percentage of cells bearing CD45RA+ / Percentage of cells bearing CD235+: ACF + BS1
Method: (§1) CD34+ cells were isolated from human umbilical cord blood by positive selection according to standard procedures. Purified CD34+ cells from either single units or pooled from several units of cord blood were seeded in 1 mL of the appropriate culture medium in 24-well plates at a density of approximately 10^5 cells/mL. Cells were maintained at a density of 10^5-10^6 cells/mL throughout the culture by dilution and/or medium replacement.
For culture and differentiation towards the megakaryocytic lineage, purified CD34+ cells were cultured in StemSpan™ ACF medium ([…]™ Technologies, Vancouver, BC, Canada) supplemented with antibiotics and the “BS1” cytokine cocktail described previously (Cortin et al, 2005), and cell counts were performed on days 6, 10, and 14.
(§2) Cell counts and viability were measured using the NucleoCounter NC-250™ Viability and Cell Count Assay system (ChemoMetec Inc., Davis, Calif.), according to the manufacturer's instructions.
(§3) Cell phenotypes were determined by flow cytometry on the indicated days using the following panel of labeled primary antibodies: CD34-FITC, CD45RA-APC, CD41a-APC, CD42b-PE, and CD235-PE.
CD34+ cells were isolated and cultured for differentiation towards the megakaryocytic lineage as generally described in Example 1.2. […] Flow cytometry was used to monitor the expansion of CD34+/CD41+ MKP cells over time, as described in Example 1.3.
More thorough cell phenotypic profiles of the CD34+ cells isolated and cultured in Example 2 were determined on days 6, 10 and 14 by flow cytometry as described in Example 1.3.

[2] = tested on: CD34+ cells from human umbilical cord blood; test: CD34+ cell culture and expansion while limiting differentiation (StemSpan ACF + CC110), flow cytometry; type: cell-based
Method: as §1
For CD34+ cell culture and expansion while limiting differentiation, cells were grown in StemSpan™-ACF medium ([…]™ Technologies) supplemented with StemSpan™ CC110 cytokine cocktail ([…]™ Technologies), and counted on days 4, 7, 10, 14, 17, and 21.
as §2, §3
CD34+ cells were isolated and cultured in a medium suitable for maintaining their self-renewal while limiting their differentiation into progenitors (StemSpan™ ACF supplemented with StemSpan™ CC110 cytokine cocktail, as described in Example 1.2).
Cell phenotypic profiles of the expanded CD34+ cells were determined on days 4, 7, 10, 14, 17, and 21 by flow cytometry as described in Example 1.3.

## Cl.Cn1nnc(-c2ccc3c(c2)[nH]c2nc(Cc4ccccc4)nc(N[C@H]4CC[C@H](N)CC4)c23)n1 [PIC, (1r,4r)-N1-(2-benzyl-7-(2-methyl-2H-tetrazol-5-yl)-9H-pyrimido[4,5-b]indol-4-yl)cyclohexane-1,4-diamine hydrochloride]
[1]; 39° C. + PIC 35 nM, data not shown
  purity of CD34+/CD41+ cells: above 40%
[1]; Day 6, 37° C. + PIC 35 nM
  Percentage of cells bearing CD34+: 98.38%
  Percentage of cells bearing CD34+/CD41+: 29.54%
  Percentage of cells bearing CD34+/CD41−: 68.55%
  Percentage of cells bearing CD41+: 29.27%
  Percentage of cells bearing CD41+/CD42+: 1.71%
  Percentage of cells bearing CD42+: 2.48%
  Percentage of cells bearing CD45RA+: 71.55%
  Percentage of cells bearing CD235+: 11.67%
[1]; Day 6, 39° C. + PIC 35 nM
  Percentage of cells bearing CD34+: 97.19%
  Percentage of cells bearing CD34+/CD41+: 48.85%
  Percentage of cells bearing CD34+/CD41−: 48.02%
  Percentage of cells bearing CD41+: 49.84%
  Percentage of cells bearing CD41+/CD42+: 7.95%
  Percentage of cells bearing CD42+: 8.31%
  Percentage of cells bearing CD45RA+: 58.97%
  Percentage of cells bearing CD235+: 19.51%
[1]; Day 10, 37° C. + PIC 35 nM
  Percentage of cells bearing CD34+: 84.39%
  Percentage of cells bearing CD34+/CD41+: 20.21%
  Percentage of cells bearing CD34+/CD41−: 64.40%
  Percentage of cells bearing CD41+: 24.84%
  Percentage of cells bearing CD41+/CD42+: 1.30%
  Percentage of cells bearing CD42+: 2.55%
  Percentage of cells bearing CD45RA+: 76.43%
  Percentage of cells bearing CD235+: 7.45%
[1]; Day 10, 39° C. + PIC 35 nM
  Percentage of cells bearing CD34+: 87.29%
  Percentage of cells bearing CD34+/CD41+: 67.10%
  Percentage of cells bearing CD34+/CD41−: 21.37%
  Percentage of cells bearing CD41+: 73.31%
  Percentage of cells bearing CD41+/CD42+: 17.09%
  Percentage of cells bearing CD42+: 17.30%
  Percentage of cells bearing CD45RA+: 46.94%
  Percentage of cells bearing CD235+: 14.40%
[1]; Day 14, 37° C. + PIC 35 nM
  Percentage of cells bearing CD34+: 69.53%
  Percentage of cells bearing CD34+/CD41+: 11% and 11.01%
  Percentage of cells bearing CD34+/CD41−: 54.97%
  Percentage of cells bearing CD41+: 23.65%
  Percentage of cells bearing CD42+: 3.02%
  Percentage of cells bearing CD45RA+: 61.90%
  Percentage of cells bearing CD235+: 2.90%
[1]; Day 14, 39° C. + PIC 35 nM
  Percentage of cells bearing CD34+: 88.56%
  Percentage of cells bearing CD34+/CD41+: 76.5% and 76.46%
  Percentage of cells bearing CD34+/CD41−: 10.25%
  Percentage of cells bearing CD41+: 87.90%
  Percentage of cells bearing CD42+: 27.09%
  Percentage of cells bearing CD45RA+: 27.09%
  Percentage of cells bearing CD235+: 12.61%
[1]; Day 14, 39° C. + PIC 35 nM, hydrochloride
  Percentage of cells bearing CD41+/CD42+: 27% and 27.04%
[2]; 39° C. + PIC 35 nM, FIG. 3B
  expansion of CD34+/CD45RA− LT-HSCs: potently enhanced
[2]; Day 4, 37° C. + PIC 35 nM
  Percentage of cells bearing CD34+: 97.91%
  Percentage of cells bearing CD34+/CD41+: 12.51%
  Percentage of cells bearing CD34+/CD235+: 4.83%
  Percentage of cells bearing CD41+: 12.53%
  Percentage of cells bearing CD42+: 1.08%
  Percentage of cells bearing CD45RA+: 65.34%
  Percentage of cells bearing CD235+: 4.87%
[2]; Day 4, 39° C. + PIC 35 nM
  Percentage of cells bearing CD34+: 94.74%
